Data as given in PubChem BioAssay (NCI).
Values joined by “and” are separate entries in the source; they are usually repeats but may differ in a detail not shown here. Equal entries are not always repeated.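 Following 48 hours of exposure in 96-well plates, responses at five concentrations were used to interpolate endpoints linearly. GI50 marks 50% less growth. TGI: concentration producing complete growth inhibition.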 Where a SMILES comes first, the peptide text is derived from it. [ ]: non-standard residue; d: D form. The star is where a group is joined. ξ: configuration not given here. NMeY = CN[C@@H](Cc1ccc(O)cc1)C(=O)O; Cbz = O=C(OCc1ccccc1)*; ξA = CC(N)C(=O)O

Tests used:
Test in all cases: NCI tumour cell line growth inhibition, 48 h
[1] = tested on: HS 578T breast
[2] = tested on: K-562 leukemia
[3] = tested on: M14 melanoma
[4] = tested on: MOLT-4 leukemia
[5] = tested on: SF-539 CNS
[6] = tested on: SNB-19 CNS
[7] = tested on: SNB-75 CNS
[8] = tested on: T-47D breast
[9] = tested on: U251 CNS
[10] = tested on: UACC-257 melanoma

Structure (SMILES)	TGI [1]	TGI [2]	TGI [3]	TGI [4] [µM]	TGI [5] [µM]	TGI [6]	TGI [7]	TGI [8]	TGI [9]	TGI [10]	GI50 [1] [µM]	GI50 [2] [µM]	GI50 [3] [µM]	GI50 [4] [µM]	GI50 [6] [µM]	GI50 [7] [µM]	GI50 [8] [µM]	GI50 [9] [µM]	GI50 [10] [µM]
Oc1c2cccc1Cc1cccc3c1OCCOCCOCCOCCOc1c(cccc1Cc1cccc(c1O)C3)C2	> 100 µM	> 100 µM	> 100 µM	> 100	> 100	> 100 µM	87.3 µM	> 100 µM	> 100 µM	> 100 µM	–	–	–	–	–	–	–	–	–
Oc1ccc2ccccc2c1-c1nnc(CCCCCCCCc2nnc(-c3c(O)ccc4ccccc34)o2)o1	25 µM and > 100 µM	25 µM and > 57.5 µM	25 µM and 55.1 µM	–	16.4	25 µM and > 100 µM	25 µM and > 100 µM	25 µM and > 100 µM	25 µM and > 63.8 µM	25 µM and > 100 µM	19.6	1.68	4.77	0.0812	17.6	27.2	1.67	17.2	2.26
Cc1[nH]c(=O)nc(N/N=C/c2ccc(Cl)c(Cl)c2)c1C(=O)Nc1ccc(Cl)c(Cl)c1	27.2 µM	> 100 µM	15.7 µM	> 100	41.2	32 µM	35.3 µM	72 µM	18.5 µM	> 41 µM	–	–	–	–	–	–	–	–	–
O=C1c2ccccc2NC2C(O)c3ccccc3N12 (stereo not drawn)	> 100 µM	> 100 µM	> 100 µM	58.7	> 100	> 100 µM	> 100 µM	> 100 µM	> 100 µM	37.7 µM	–	–	–	–	–	–	–	–	–
OC(CC(c1ccccc1)c1ccc(Cl)cc1)c1ccc(Cl)cc1 (stereo not drawn)	> 100 µM	> 100 µM	> 100 µM	> 100	> 100	> 100 µM	81.8 µM	88.4 µM	> 100 µM	> 100 µM	–	–	–	–	–	–	–	–	–
Cc1cc(S(=O)(=O)Nc2n[nH]c(Nc3ccccc3)n2)c(S)cc1Cl	> 10 µM	> 10 µM	> 10 µM	> 10	> 10	> 10 µM	> 10 µM	> 10 µM	> 10 µM	> 10 µM	–	–	–	–	–	–	–	–	–
c1ccc2c3c(ccc2c1)CSCc1ccc2ccccc2c1-3	> 100 µM	> 100 µM	> 100 µM	> 100	> 100	> 100 µM	> 100 µM	> 100 µM	> 100 µM	> 100 µM	–	–	–	–	–	–	–	–	–
COc1ccc(C[C@@H](C(=O)NCC(N)=O)N(C)C(=O)[C@@H]2CCCN2C(=O)[C@H](CC(C)C)NC(=O)C(C)NC(=O)OCc2ccccc2)cc1 (stereo partly drawn) (Cbz-[ξA]LP[NMeY](Me)G-NH2)	> 100 µM	> 100 µM	> 100 µM	> 100	> 100	> 100 µM	> 100 µM	> 100 µM	> 100 µM	> 100 µM	–	–	–	–	–	–	–	–	–
CCOC(=O)c1c2c(n(C)c1-c1ccccc1)C(=O)C(C)=CC2=O	56.7 µM	> 33.2 µM	13.5 µM	9.96	14.6	26.7 µM	28.8 µM	> 26 µM	22.8 µM	7.03 µM	–	–	–	–	–	–	–	–	–
CN(C)c1ccc(C(=NNC(=O)c2cc3ccccc3[nH]2)c2ccc(N(C)C)cc2)cc1	3.74 µM	> 100 µM	29 µM	> 100	8.04	> 44.5 µM	16.9 µM	> 100 µM	14.5 µM	> 100 µM	–	–	–	–	–	–	–	–	–
O=C(Nc1cccc2nsnc12)c1cc2c(cc1Cl)Sc1nccn1S2(=O)=O	> 100 µM	> 44.5 µM	42.5 µM	> 30.7	10	24.8 µM	35.9 µM	7.04 µM	17.6 µM	3.49 µM	–	–	–	–	–	–	–	–	–
COc1cc(C2SCC(=O)N2NC(=O)c2ccc(NC(C)=O)cc2)cc(OC)c1OC (stereo not drawn)	> 100 µM	> 100 µM	> 100 µM	> 100	> 100	> 100 µM	> 100 µM	> 100 µM	> 100 µM	> 100 µM	–	–	–	–	–	–	–	–	–
Cc1ccc(-c2cc(-c3ccc(Cl)cc3)nc(/N=C3\C(=O)N(CN4CCCCC4)c4ccc(Cl)cc43)n2)cc1	49.4 µM	> 100 µM	46.6 µM	63.4	61.5	34.7 µM	> 100 µM	> 100 µM	76.2 µM	71.1 µM	–	–	–	–	–	–	–	–	–
CC1=NN(c2nc(N)nc(/C(C#N)=C/c3ccncc3)n2)C(C)(C)C1	> 100 µM	37.9 µM	> 100 µM	> 100	> 100	> 100 µM	> 100 µM	> 100 µM	> 100 µM	> 100 µM	–	–	–	–	–	–	–	–	–
